The target of the assay is T1, PLK1 (Homo sapiens, UniProt P53350).
T1 construct: endogenous in cells; host or cells: HeLa
The assay can be described thus: PLK1 protein degradation in HeLa cells, Western blotting (PLK1/GAPDH ratio). The format is cell-based. As to conditions: 6 hours compound incubation; for Dmax: thymidine block and release, 10 points three-fold from 3 μM, PLK1 to GAPDH ratio, read-out: Dmax; for DC50: measured only if the grade of Dmax is A or B. The procedure, abridged: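 PLK1 level measured by Western blot as PLK1/GAPDH in HeLa lysates (15 μg protein per lane). Cells were blocked with 2 mM thymidine 24 h, released 4 h, and exposed 6 h to compound, 10 concentrations, 3-fold steps, top 3 μM.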
(A western blot detects proteins with antibodies after separation by electrophoresis.)

T1 sequence (P53350 whole entry): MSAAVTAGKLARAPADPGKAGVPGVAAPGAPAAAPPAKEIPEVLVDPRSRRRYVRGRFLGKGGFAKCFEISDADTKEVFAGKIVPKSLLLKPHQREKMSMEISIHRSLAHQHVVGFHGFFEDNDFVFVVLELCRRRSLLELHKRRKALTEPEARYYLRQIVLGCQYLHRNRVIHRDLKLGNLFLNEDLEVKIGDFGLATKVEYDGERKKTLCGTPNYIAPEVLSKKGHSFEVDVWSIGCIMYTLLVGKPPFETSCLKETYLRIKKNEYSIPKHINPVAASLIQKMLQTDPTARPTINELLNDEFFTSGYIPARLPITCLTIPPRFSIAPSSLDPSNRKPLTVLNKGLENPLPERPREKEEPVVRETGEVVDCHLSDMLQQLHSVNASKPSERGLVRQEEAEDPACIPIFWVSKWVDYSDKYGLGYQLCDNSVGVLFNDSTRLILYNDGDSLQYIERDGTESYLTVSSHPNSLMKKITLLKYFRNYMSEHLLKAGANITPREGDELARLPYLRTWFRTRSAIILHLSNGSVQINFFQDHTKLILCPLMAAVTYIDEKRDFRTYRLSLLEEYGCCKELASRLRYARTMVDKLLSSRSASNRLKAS

The Dmax is the greatest extent of degradation seen. For `COc1cc(C(=O)NC2CCN(C(=O)COCCNc3cccc4c3C(=O)N(C3CCC(=O)NC3=O)C4=O)CC2)c(F)cc1Nc1ncc2c(n1)N(C1CCCC1)CC(F)(F)C(=O)N2C` (centres unmarked) [Compound 31, 4-((9-cyclopentyl-7,7-difluoro-5-methyl-6-oxo-6,7,8,9-tetrahydro-5H-pyrimido[4,5-b][1,4]diazepin-2-yl)amino)-N-(1-(2-(2-((2-(2,6-dioxopiperidin-3-yl)-1,3-dioxoisoindolin-4-yl)amino)ethoxy)acetyl)piperidin-4-yl)-2-fluoro-5-methoxybenzamide], the greatest degradation seen (Dmax) is below 60%.
As a reminder, the DC50 is the concentration at which degradation of the target reaches its halfway point. Turning to `COc1cc(C(=O)NC2CCN(C(=O)CCOCCNc3cccc4c3C(=O)N(C3CCC(=O)NC3=O)C4=O)CC2)c(F)cc1Nc1ncc2c(n1)N(C1CCCC1)CC(F)(F)C(=O)N2C` (centres unmarked) [Compound 32, 4-((9-cyclopentyl-7,7-difluoro-5-methyl-6-oxo-6,7,8,9-tetrahydro-5H-pyrimido[4,5-b][1,4]diazepin-2-yl)amino)-N-(1-(3-(2-((2-(2,6-dioxopiperidin-3-yl)-1,3-dioxoisoindolin-4-yl)amino)ethoxy)propanoyl)piperidin-4-yl)-2-fluoro-5-methoxybenzamide], the DC50 is at most 0.05 µM and the Dmax is at least 80%.
With `COc1cc(C(=O)NC2CCN(C(=O)COCCOCCNc3cccc4c3C(=O)N(C3CCC(=O)NC3=O)C4=O)CC2)c(F)cc1Nc1ncc2c(n1)N(C1CCCC1)CC(F)(F)C(=O)N2C` (centres unmarked) [Compound 33, 4-((9-cyclopentyl-7,7-difluoro-5-methyl-6-oxo-6,7,8,9-tetrahydro-5H-pyrimido[4,5-b][1,4]diazepin-2-yl)amino)-N-(1-(2-(2-(2-((2-(2,6-dioxopiperidin-3-yl)-1,3-dioxoisoindolin-4-yl)amino)ethoxy)ethoxy)acetyl)piperidin-4-yl)-2-fluoro-5-methoxybenzamide], the DC50 is at most 0.05 µM and the Dmax was at least 80%.
The corresponding values for `COc1cc(C(=O)NC2CCN(C(=O)COCCOCCOCCOCCNc3cccc4c3C(=O)N(C3CCC(=O)NC3=O)C4=O)CC2)c(F)cc1Nc1ncc2c(n1)N(C1CCCC1)CC(F)(F)C(=O)N2C` (centres unmarked) [Compound 34, 4-((9-cyclopentyl-7,7-difluoro-5-methyl-6-oxo-6,7,8,9-tetrahydro-5H-pyrimido[4,5-b][1,4]diazepin-2-yl)amino)-N-(1-(14-((2-(2,6-dioxopiperidin-3-yl)-1,3-dioxoisoindolin-4-yl)amino)-3,6,9,12-tetraoxatetradecanoyl)piperidin-4-yl)-2-fluoro-5-methoxybenzamide] are at most 0.05 µM and at least 80%.
As to `COc1cc(C(=O)NC2CCN(CC(=O)NCCOCCNc3cccc4c3C(=O)N(C3CCC(=O)NC3=O)C4=O)CC2)c(F)cc1Nc1ncc2c(n1)N(C1CCCC1)CC(F)(F)C(=O)N2C` (centres unmarked) [Compound 35, 4-((9-cyclopentyl-7,7-difluoro-5-methyl-6-oxo-6,7,8,9-tetrahydro-5H-pyrimido[4,5-b][1,4]diazepin-2-yl)amino)-N-(1-(2-((2-(2-((2-(2,6-dioxopiperidin-3-yl)-1,3-dioxoisoindolin-4-yl)amino)ethoxy)ethyl)amino)-2-oxoethyl)piperidin-4-yl)-2-fluoro-5-methoxybenzamide], the DC50 was at most 0.05 µM and the Dmax is at least 80%.
For the molecule `COc1cc(C(=O)NC2CCN(CC(=O)NCCOCCOCCOCCNc3cccc4c3C(=O)N(C3CCC(=O)NC3=O)C4=O)CC2)c(F)cc1Nc1ncc2c(n1)N(C1CCCC1)CC(F)(F)C(=O)N2C` (centres unmarked) [Compound 36, 4-((9-cyclopentyl-7,7-difluoro-5-methyl-6-oxo-6,7,8,9-tetrahydro-5H-pyrimido[4,5-b][1,4]diazepin-2-yl)amino)-N-(1-(14-((2-(2,6-dioxopiperidin-3-yl)-1,3-dioxoisoindolin-4-yl)amino)-2-oxo-6,9,12-trioxa-3-azatetradecyl)piperidin-4-yl)-2-fluoro-5-methoxybenzamide], the DC50 was at most 0.05 µM and the Dmax is at least 80%.
For `COc1cc(C(=O)NC2CCN(CCCC(=O)Nc3cccc4c3C(=O)N(C3CCC(=O)NC3=O)C4=O)CC2)c(F)cc1Nc1ncc2c(n1)N(C1CCCC1)CC(F)(F)C(=O)N2C` (centres unmarked) [Compound 37, 4-((9-cyclopentyl-7,7-difluoro-5-methyl-6-oxo-6,7,8,9-tetrahydro-5H-pyrimido[4,5-b][1,4]diazepin-2-yl)amino)-N-(1-(4-((2-(2,6-dioxopiperidin-3-yl)-1,3-dioxoisoindolin-4-yl)amino)-4-oxobutyl)piperidin-4-yl)-2-fluoro-5-methoxybenzamide] the same measures were at most 0.5 µM and 60 to 80%.
Turning to `COc1cc(C(=O)NC2CCN(CCCCCCCC(=O)Nc3cccc4c3C(=O)N(C3CCC(=O)NC3=O)C4=O)CC2)c(F)cc1Nc1ncc2c(n1)N(C1CCCC1)CC(F)(F)C(=O)N2C` (centres unmarked) [Compound 38, 4-((9-cyclopentyl-7,7-difluoro-5-methyl-6-oxo-6,7,8,9-tetrahydro-5H-pyrimido[4,5-b][1,4]diazepin-2-yl)amino)-N-(1-(8-((2-(2,6-dioxopiperidin-3-yl)-1,3-dioxoisoindolin-4-yl)amino)-8-oxooctyl)piperidin-4-yl)-2-fluoro-5-methoxybenzamide], the half-maximal degradation concentration (DC50) is at most 0.5 µM and the Dmax is 60 to 80%.
For `COc1cc(C(=O)NC2CCN(C(=O)CCCNc3cccc4c3C(=O)N(C3CCC(=O)NC3=O)C4=O)CC2)c(F)cc1Nc1ncc2c(n1)N(C1CCCC1)CC(F)(F)C(=O)N2C` (centres unmarked) [Compound 39, 4-((9-cyclopentyl-7,7-difluoro-5-methyl-6-oxo-6,7,8,9-tetrahydro-5H-pyrimido[4,5-b][1,4]diazepin-2-yl)amino)-N-(1-(4-((2-(2,6-dioxopiperidin-3-yl)-1,3-dioxoisoindolin-4-yl)amino)butanoyl)piperidin-4-yl)-2-fluoro-5-methoxybenzamide], the DC50 was at most 0.05 µM and the greatest degradation seen (Dmax) is at least 80%.
The corresponding values for `COc1cc(C(=O)NC2CCN(Cc3ccc(OCCNc4cccc5c4C(=O)N(C4CCC(=O)NC4=O)C5=O)cc3)CC2)c(F)cc1Nc1ncc2c(n1)N(C1CCCC1)CC(F)(F)C(=O)N2C` (centres unmarked) [Compound 40, 4-((9-cyclopentyl-7,7-difluoro-5-methyl-6-oxo-6,7,8,9-tetrahydro-5H-pyrimido[4,5-b][1,4]diazepin-2-yl)amino)-N-(1-(4-(2-((2-(2,6-dioxopiperidin-3-yl)-1,3-dioxoisoindolin-4-yl)amino)ethoxy)benzyl)piperidin-4-yl)-2-fluoro-5-methoxybenzamide] are at most 0.5 µM and 60 to 80%.
`COc1cc(C(=O)NC2CCN(Cc3ccc(OCCOCCOCCNc4cccc5c4C(=O)N(C4CCC(=O)NC4=O)C5=O)cc3)CC2)c(F)cc1Nc1ncc2c(n1)N(C1CCCC1)CC(F)(F)C(=O)N2C` (centres unmarked) [Compound 41, 4-((9-cyclopentyl-7,7-difluoro-5-methyl-6-oxo-6,7,8,9-tetrahydro-5H-pyrimido[4,5-b][1,4]diazepin-2-yl)amino)-N-(1-(4-(2-(2-(2-((2-(2,6-dioxopiperidin-3-yl)-1,3-dioxoisoindolin-4-yl)amino)ethoxy)ethoxy)ethoxy)benzyl)piperidin-4-yl)-2-fluoro-5-methoxybenzamide]: the half-maximal degradation concentration (DC50) was at most 0.05 µM and the Dmax is at least 80%.
The corresponding values for `COc1cc(C(=O)NC2CCN(CCc3ccc(CC(=O)Nc4cccc5c4C(=O)N(C4CCC(=O)NC4=O)C5=O)cc3)CC2)c(F)cc1Nc1ncc2c(n1)N(C1CCCC1)CC(F)(F)C(=O)N2C` (centres unmarked) [Compound 42, 4-((9-cyclopentyl-7,7-difluoro-5-methyl-6-oxo-6,7,8,9-tetrahydro-5H-pyrimido[4,5-b][1,4]diazepin-2-yl)amino)-N-(1-(4-(2-((2-(2,6-dioxopiperidin-3-yl)-1,3-dioxoisoindolin-4-yl)amino)-2-oxoethyl)phenethyl)piperidin-4-yl)-2-fluoro-5-methoxybenzamide] are above 0.5 µM and 60 to 80%.
For `COc1cc(C(=O)NC2CCN(CCCn3cnc(CNc4cccc5c4C(=O)N(C4CCC(=O)NC4=O)C5=O)c3)CC2)c(F)cc1Nc1ncc2c(n1)N(C1CCCC1)CC(F)(F)C(=O)N2C` (centres unmarked) [Compound 43], the 50% degradation concentration (DC50) was at most 0.05 µM and the Dmax was at least 80%.
For `COc1cc(C(=O)NC2CCN(Cc3cn(CCOCCNc4cccc5c4C(=O)N(C4CCC(=O)NC4=O)C5=O)nn3)CC2)c(F)cc1Nc1ncc2c(n1)N(C1CCCC1)CC(F)(F)C(=O)N2C` (centres unmarked) [Compound 44, 4-((9-cyclopentyl-7,7-difluoro-5-methyl-6-oxo-6,7,8,9-tetrahydro-5H-pyrimido[4,5-b][1,4]diazepin-2-yl)amino)-N-(1-((1-(2-(2-((2-(2,6-dioxopiperidin-3-yl)-1,3-dioxoisoindolin-4-yl)amino)ethoxy)ethyl)-1H-1,2,3-triazol-4-yl)methyl)piperidin-4-yl)-2-fluoro-5-methoxybenzamide] the same measures were at most 0.05 µM and at least 80%.
Take `COc1cc(C(=O)NC2CCN(Cc3cn(CCOCCOCCOCCNc4cccc5c4C(=O)N(C4CCC(=O)NC4=O)C5=O)nn3)CC2)c(F)cc1Nc1ncc2c(n1)N(C1CCCC1)CC(F)(F)C(=O)N2C` (centres unmarked) [Compound 45, 4-((9-cyclopentyl-7,7-difluoro-5-methyl-6-oxo-6,7,8,9-tetrahydro-5H-pyrimido[4,5-b][1,4]diazepin-2-yl)amino)-N-(1-((1-(2-(2-(2-(2-((2-(2,6-dioxopiperidin-3-yl)-1,3-dioxoisoindolin-4-yl)amino)ethoxy)ethoxy)ethoxy)ethyl)-1H-1,2,3-triazol-4-yl)methyl)piperidin-4-yl)-2-fluoro-5-methoxybenzamide]: the 50% degradation concentration (DC50) was at most 0.05 µM and the greatest degradation seen (Dmax) is at least 80%.

These data come from patent publication US20230372498A1, “PLK1 SELECTIVE DEGRADATION INDUCING COMPOUND” (UPPTHERA, priority 2020, published 2023).
